In patent publication US20250011288A1 (BRISTOL-MYERS SQUIBB COMPANY, priority 2021, published 2025):

What follows are compounds tested against T1, human RXFP1 (Homo sapiens, UniProt Q9HBX9) (assay: human RXFP1 (hRXFP1) HEK293 cAMP assay (HTRF)). Conditions: HEK293 cells stably expressing human RXFP1, 30 min at room temperature.
T1 construct: expressed in transfected cells
T1 sequence (Q9HBX9 1-757): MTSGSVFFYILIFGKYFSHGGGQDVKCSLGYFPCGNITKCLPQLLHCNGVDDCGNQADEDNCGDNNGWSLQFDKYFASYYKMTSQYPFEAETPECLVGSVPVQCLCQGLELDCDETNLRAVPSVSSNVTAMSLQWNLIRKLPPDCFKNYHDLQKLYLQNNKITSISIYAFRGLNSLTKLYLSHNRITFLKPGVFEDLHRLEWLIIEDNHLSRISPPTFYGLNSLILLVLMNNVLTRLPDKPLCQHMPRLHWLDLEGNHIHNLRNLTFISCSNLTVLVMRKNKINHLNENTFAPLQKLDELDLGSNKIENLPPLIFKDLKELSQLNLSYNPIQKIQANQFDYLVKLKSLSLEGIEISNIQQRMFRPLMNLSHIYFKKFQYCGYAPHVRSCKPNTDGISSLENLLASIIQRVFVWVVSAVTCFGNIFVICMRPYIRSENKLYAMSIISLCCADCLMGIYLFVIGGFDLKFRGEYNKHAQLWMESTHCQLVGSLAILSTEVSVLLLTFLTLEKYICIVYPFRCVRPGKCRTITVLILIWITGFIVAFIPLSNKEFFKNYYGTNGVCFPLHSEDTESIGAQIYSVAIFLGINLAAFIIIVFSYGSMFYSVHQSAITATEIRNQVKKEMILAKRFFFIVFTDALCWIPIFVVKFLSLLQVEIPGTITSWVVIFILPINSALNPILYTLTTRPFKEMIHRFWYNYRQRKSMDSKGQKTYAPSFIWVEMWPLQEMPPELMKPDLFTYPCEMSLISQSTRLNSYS
Format: cell-based
Description: RXFP1 Cyclic Adenosine Monophosphate (cAMP) Assays. […] Cells were dissociated and suspended in assay buffer. The assay buffer was HBSS buffer (with calcium and magnesium) containing 20 mM HEPES, 0.05% BSA, and 0.5 mM IBMX. Cells (3000 cells per well, except 1500 cell per well for HEK293 cells stably expressing human RXFP1) were added to 384-well Proxiplates (Perkin-Elmer). Cells were immediately treated with test compounds in DMSO (2% final) at final concentrations in the range of 0.010 nM to 50 µM. Cells were incubated for 30 min at room temperature. The level of intracellular cAMP was determined using the HTRF HiRange cAMP assay reagent kit (Cisbio) according to manufacturer's instructions. Solutions of cryptate conjugated anti-cAMP and d2 fluorophore-labelled cAMP were made in a supplied lysis buffer separately. Upon completion of the reaction, the cells were lysed with equal volume of the d2-cAMP solution and anti-cAMP solution. […] The potency and activity of a compound to […] cAMP production was then determined by fitting to a 4-parametric logistic equation from a plot of cAMP level versus compound concentrations.

| Compound | EC50 |
| --- | --- |
| COc1ncc(Br)nc1C(=O)N[C@@H]1C2CCC(C2=C(C)C)[C@@H]1C(=O)Nc1ccc(F)c(C(F)(F)F)c1 (stereo partly drawn) [Example 5, 6-bromo-N-[(2R,3S)-3-{[4-fluoro-3-(trifluoromethyl)phenyl]carbamoyl}-7-(propan-2-ylidenc)bicyclo [2.2.1]heptan-2-yl]-3-methoxypyrazine-2-carboxamide] | 1100 nM |
| N- ((1R,2R,3S,4R,Z)- 3-((4-fluoro-3- (trifluoromethyl) phenyl)carbamoyl)- 7-3- hydroxy- propylidene) bicyclo[2.2.1] heptan-2-yl)-5-(5- (hydroxymethyl)- 3a,5,6,6a- tetrahydro-4H- cyclopenta[d] isoxazol-3-yl)-2- methoxy- nicotinamide [Example 114] | 1.2 nM |
| COc1ncc(C(=O)N2CC(O)C2)cc1C(=O)N[C@H]1[C@@H](C(=O)Nc2ccc(F)c(C(F)(F)F)c2)[C@H]2CC[C@@H]1/C2=C\C1CC1 [Example 75, N-[(1R,2R,3S, 4R,7Z)-7-(cyclopropyl-methylidene)-3-{[4-fluoro-3-(trifluoromethyl)phenyl]carbamoyl}bicyclo[2.2.1]heptan-2-yl]-5-(3-hydroxyazetidine-1-carbonyl)-2-methoxypyridine-3-carboxamide] | 8.1 nM |
| COc1cn(CCS(C)(=O)=O)nc1C(=O)N[C@H]1[C@@H](C(=O)Nc2ccc(F)c(C(F)(F)F)c2)[C@H]2CC[C@@H]1/C2=C\C1CC1 [Example 77, N-[(1R,2R,3S,4R,7Z)-7-(cyclopropylmethylidene)-3-{[4-fluoro-3-(trifluoromethyl)phenyl]carbamoyl}bicyclo[2.2.1]heptan-2-yl]-1-(2-methanesulfonylethyl)-4-methoxy-1H-pyrazole-3-carboxamide] | 71 nM |
| O=C(N[C@@H]1C2CCC(/C2=C/C(F)(F)F)[C@@H]1C(=O)Nc1ccc(F)c(C(F)(F)F)c1)c1cnc2ccc(Cl)cc2c1 (stereo partly drawn) [Example 17, 6-chloro-N-[(2R,3S,7Z)-3-{[4-fluoro-3-(trifluoromethyl)phenyl]carbamoyl}-7-(2,2,2-trifluoroethylidene)bicyclo[2.2.1]heptan-2-yl]quinoline-3-carboxamide] | 4500 nM |
| COc1ncc(C2=NOC3COCC23)cc1C(=O)N[C@H]1[C@@H](C(=O)Nc2ccc(F)c(C(F)(F)F)c2)[C@H]2CC[C@@H]1/C2=C\C1CC1 (single isomer, unassigned) [Example 60] | 210 nM |
| COc1ccc(-c2cc([C@H](OC(=O)Nc3ccccc3)C(F)(F)F)ccc2F)nc1C(=O)N[C@@H]1C2CCC(/C2=C/C(F)(F)F)[C@@H]1C(=O)Nc1ccc(F)c(C(F)(F)F)c1 (stereo partly drawn) [Example 39, (1S)-2,2,2-trifluoro-1-14-fluoro-3-(6-{[(2R,3S,72)-3-{[4-fluoro-3-(trifluoromethyl)phenyl]carbamoyl}-7-(2,2,2-trifluoro-ethylidene)bicyclo[2. 2.1]heptan-2-yl]carbamoyl}-5-methoxypyridin-2-yl)phenyl]ethyl N-phenylcarbamate] | 110 nM |
| COc1ncc(CCCO)cc1C(=O)N[C@@H]1C2CCC(/C2=C/C(F)(F)F)[C@@H]1C(=O)Nc1ccc(F)c(C(F)(F)F)c1 (stereo partly drawn) [Example 50, N-[(2R,3S,7Z)-3-{[4-fluoro-3-(trifluoromethyl)phenyl]carbamoyl}-7-(2,2,2-trifluoroethylidene)bicyclo[2.2.1]heptan-2-yl]-5-(3-hydroxypropyl)-2-methoxypyridine-3-carboxamide] | 129 nM |

Further lines, results first:

| EC50 | Compound |
| --- | --- |
| 2.6 nM | CNC(=O)O[C@@H](c1ccc(F)c(-c2cnc(OC)c(C(=O)N[C@@H]3C4CCC(/C4=C/C4CC4)[C@@H]3C(=O)Nc3ccc(F)c(C(F)(F)F)c3)c2)c1)C(F)(F)F (stereo partly drawn) [Example 182, (1S)-1-[3-(5-{[(2R,3S,7Z)-7-(cyclopropyl-methylidene)-3-{[4-fluoro-3-(trifluoromethyl)phenyl]carbamoyl}bicyclo[2.2.1]heptan-2-yl]carbamoyl}-6-methoxypyridin-3-yl)-4-fluorophenyl]-2,2,2-trifluoroethyl N-methylcarbamate] |
| 260 nM | COc1cn(CCCO)nc1C(=O)N[C@H]1[C@@H](C(=O)Nc2ccc(F)c(C(F)(F)F)c2)[C@H]2CC[C@@H]1/C2=C\C1CC1 [Example 80, N-[(1R,2R,3S, 4R,7Z)-7-(cyclopropyl-methylidene)-3-{[4-fluoro-3-(trifluoromethyl)phenyl]carbamoyl}bicyclo[2.2.1]heptan-2-yl]-1-(3-hydroxypropyl)-4-methoxy-1H-pyrazole-3-carboxamide] |
| 2.5 nM | COc1ncc(-c2cc([C@H](OC(=O)NC3CC3)C(F)(F)F)ccc2F)cc1C(=O)N[C@H]1[C@@H](C(=O)Nc2ccc(F)c(C(F)(F)F)c2)[C@H]2CC[C@@H]1/C2=C\C(C)C [Example 166, (1S)-2,2,2-trifluoro-1-[4-fluoro-3-(5-{[(1R,2R,3S,4R, 7Z)-3-{[4-fluoro-3-(trifluoromethyl)phenyl]carbamoyl}-7-(2-methylpropylidene)bicyclo[2.2.1]heptan-2-yl]carbamoyl}-6-methoxypyridin-3-yl)phenyl]ethyl N-cyclopropyl-carbamate] |
| 1.6 nM | COc1ncc(C2=NOC3CC(CO)CC23)cc1C(=O)N[C@H]1[C@@H](C(=O)Nc2ccc(F)c(C(F)(F)F)c2)[C@H]2CC[C@@H]1/C2=C\C1CCCC1 (stereo partly drawn) [Example 101, N-((1R,2R,3S,4R,Z)-7-(cyclopentyl-methylene)-3-((4-fluoro-3-(trifluoromethyl)phenyl)carbamoyl)bicyclo[2.2.1]heptan-2-yl)-5-(5-(hydroxymethyl)-3a,5,6,6a-tetrahydro-4H-cyclopenta[d]isoxazol-3-yl)-2-methoxynicotinamide] |
| 4.1 nM | CC1Cc2cc(C3=NOC4CC(O)CC34)cc(C(=O)N[C@H]3[C@@H](C(=O)Nc4ccc(F)c(C(F)(F)F)c4)[C@H]4CC[C@@H]3/C4=C\C3CC3)c2O1 (stereo partly drawn) [Example 154, N-[(1R,2R,3S,4R, 7Z)-7-(cyclopropyl-methylidene)-3-{[4-fluoro-3-(trifluoromethyl)phenyl]carbamoyl}bicyclo[2.2.1]heptan-2-yl]-5-{5-hydroxy-3aH,4H,5H,6H, 6aH-cyclopenta[d][1, 2]oxazol-3-yl}-2-methyl-2,3-dihydro-1-benzofuran-7-carboxamide] |
| 4.8 nM | COc1ncc(C2=NOC3CC(O)CC23)cc1C(=O)N[C@H]1[C@@H](C(=O)Nc2ccc(F)c(C(F)(F)F)c2)[C@H]2CC[C@@H]1/C2=C\C1CC1 (stereo partly drawn) [Example 138, N-((1R,2R,3S,4R,Z)-7-(cyclopropyl-methylene)-3-((4-fluoro-3-(trifluoromethyl)phenyl)carbamoyl)bicyclo[2.2.1]heptan-2-yl)-5-(5-hydroxy-3a,5,6,6a-tetrahydro-4H-cyclopenta[d]isoxazol-3-yl)-2-methoxynicotinamide] |
| 4 nM | COc1ncc(C2=NOC3CC(C(O)C(F)(F)F)CC23)cc1C(=O)N[C@H]1[C@@H](C(=O)Nc2ccc(F)c(C(F)(F)F)c2)[C@H]2CC[C@@H]1/C2=C\C1CC1 (stereo partly drawn) [Example 135, N-((1R,2R,3S,4R,Z)-7-(cyclopropyl-methylene)-3-((4-fluoro-3-(trifluoromethyl)phenyl)carbamoyl)bicyclo[2.2.1]heptan-2-yl)-2-methoxy-5-(5-(2,2,2-trifluoro-1-hydroxyethyl)-3a,5,6,6a-tetrahydro-4H-cyclopenta[d]isoxazol-3-yl)nicotinamide] |
| 6 nM | CC(O)C1CC2ON=C(c3cc4c(c(C(=O)N[C@H]5[C@@H](C(=O)N[C@H](C)C6(C)CC6)[C@H]6CC[C@@H]5/C6=C\C5CC5)c3)OC(C)(C)C4)C2C1 (stereo partly drawn) [Example 176, N-[(1R,2R,3S,4R, 7Z)-7-(cyclopropyl-methylidene)-3-{[(1R)-1-(1-methylcyclopropyl)ethyl]carbamoyl}bicyclo[2.2.1]heptan-2-yl]-5-[5-(1-hydroxyethyl)-3aH,4H,5H,6H, 6aH-cyclopenta[d][1,2]oxazol-3-yl]-2,2-dimethyl-2,3-dihydro-1-benzofuran-7-carboxamide] |
| 1.8 nM | COc1ncc(C2=NO[C@@H]3C[C@H](CO)CN23)cc1C(=O)N[C@@H]1C2CCC(/C2=C/C2CC2)[C@@H]1C(=O)Nc1ccc(F)c(C(F)(F)F)c1 (stereo partly drawn) [Example 132, N-((1R,2R,3S,4R,Z)-7-(cyclopropyl-methylene)-3-((4-fluoro-3-(trifluoromethyl)phenyl)carbamoyl)bicyclo[2.2.1]heptan-2-yl)-5-((6S,7aR)-6-(hydroxymethyl)-5,6,7,7a-tetrahydropyrrolo [1,2-d][1,2,4]oxadiazo 1-3-yl)-2-methoxynicotinamide] |
